Source: patent US11400059B2, “Treatment of pain and/or pain related symptoms associated with dysmenorrhea” (ALYRA BIOTECH PTY LTD, priority 2017, dated 2022)

Legend:
[1] = taken orally; cited from earlier work
HEK293/Null = experiment: Antagonist screening on RIG-I−/MDA-5− control cell line stimulated with hIFNα; type: cell-based; conditions: stimulated with recombinant hIFNα at 100 IU/mL
Protocol: RIG-I and MDA-5 stimulation were tested by assessing IRF3 activation in HEK293 cells expressing human RIG-I or MDA-5 genes. The activity of the test articles was tested on human RIG-I and MDA-5 expressing cells as a potential agonist or antagonist. The test articles were evaluated at one concentration and compared to control ligands. This step was performed in triplicate. The results are provided as Relative Luminescence Units (RLUs).
RIG-I^−/MDA-5^− Cell Lines: HEK293/Null: Control for human RIG-I and MDA-5 Poly(I:C)HMW/LyoVec at 1 μg/mL. Antagonist: 500 ng/mL 5′ppp-dsRNA/LyoVec at 1 μg/mL. Antagonist: 500 ng/mL hIFNα at 1000 IU/mL. Antagonist: 100 IU/mL.
In a 96-well plate (200 μL total volume) containing the appropriate cells (25,000-50,000 cells/well), 20 μL of the test article or of the positive control ligand was added to the wells. For the antagonist assay, the test article was incubated with the cells, at 37° C. with 5% CO2, for 30 minutes prior to the addition of the positive control ligand to the wells. After 20 hour incubation, activation of the IRF pathway was monitored using a luciferase detection assay. Luciferase activity was assayed in triplicate from the supernatant of the induced cells, and the relative luminescence units (RLUs) are detected by a Promega GloMax Luminometer.

[2] = system: spinal glial cells in the dorsal horn of the spinal cord; experiment: Spinal glial activation (astrocytes and microglia) after intrauterine LPS, overall statements; type: in vivo, mouse (Balb/C); conditions: for spinal glial activation induced by intrauterine LPS: intrauterine co-administration with LPS
Text: In the model, we investigated whether intrauterine LPS administration would cause an activation of the innate immune system in the uterus, replicating the inflammation often seen in dysmenorrhea, with possible association with pain. As inflammation is intrinsically linked with pain, we investigated whether activation of the innate immune system in the uterus would induce activation of spinal glial cells (central nervous system immune cells) in the dorsal horn of the spinal cord. Spinal glial cells include astrocytes and microglia. Activation of spinal glial cells was assessed using immunoflourescent staining with GFAP (astrocytes) or Iba1 (microglia). We then investigated if spinal glial activation is attenuated by the innate immune system blocking drugs amitriptyline and TAK-242.
(§1) Group 1 included twelve mice with 20 μl endotoxin-free saline introduced to the uterus on the first day of estrus and the subsequent day over 3 consecutive estrous cycles. Group 2 included twelve mice with LPS (100 μg/kg) instilled in the uterus on the first day of estrus and saline injected on the subsequent day over 3 consecutive estrous cycles. Group 3 included twelve mice with LPS (100 μg/kg) mixed with amitriptyline (20 μl of a 100 μM solution, equivalent to 28 μg/kg) instilled in the uterus on the first day of estrus, and amitriptyline alone instilled on the subsequent day over 3 consecutive estrous cycles. Group 4 included 14 mice with LPS (100 μg/kg) mixed with TAK-242 (20 μl of a 100 μM solution, equivalent to 36 μg/kg) instilled on the first day of estrus and TAK-242 alone instilled on the subsequent day over 3 consecutive estrous cycles.
Determination of spinal glial response was then assessed using immunofluorescence to confirm the validity of the experimental model.
Determination of the ability of TLR4 antagonists to block the activation of spinal astrocytes and microglia induced by intra-uterine instillation of LPS was assessed.
An assessment of glial activation was made using immunochemistry techniques including Ionized calcium binding adaptor molecule 1 (Iba1) expression and glial fibrillary-associated protein (GFAP) variability in the dorsal horn. Iba1 expression is a marker for microglial activation, and GFAP is a marker for astrocyte activation. The spinal cord levels chosen are consistent with the level of spinal afferent neurons associated with the pelvis, including the uterus in the mouse.

[3] = system: spinal microglia (Iba1) in the dorsal horn of the spinal cord; experiment: Spinal microglial activation (Iba1 immunofluorescence) after intrauterine LPS; type: in vivo, mouse (Balb/C); conditions: intrauterine, mixed with LPS 100 μg/kg on first day of estrus and alone the subsequent day, 3 estrous cycles; amitriptyline 28 μg/kg, TAK-242 36 μg/kg; vs LPS
Protocol: as §1
The investigation involved the instillation of 20 ul of an endotoxin-free 0.9% saline solution into the uterus of all animals on the first day of estrus and the subsequent day during 3 consecutive estrous cycles. Additional agents added to the saline were included according to the groups outlined below. Where LPS is administered, this was done on only 1 day per estrous cycle.
Where amitriptyline or TAK-242 was administered, this is on both the first day of estrus and the subsequent day.
The spinal cord was assessed using immunohistochemistry techniques across levels T10, T11, T12, T13, L1, L2, L3, L4, L5, L6, S1 and S2 for Groups 1 and 2, where T represents the thoracic segment of the spinal cord, L represents the lumbar segment of the spinal cord and S represents the sacral segment of the spinal cord.
The spinal cord was assessed using immunohistochemistry techniques across levels T12, T13, L1, L2, L3, L4, L5, L6, S and S2 for Groups 3 and 4, where T represents the thoracic segment of the spinal cord, L represents the lumbar segment of the spinal cord and S represents the sacral segment of the spinal cord. […]

[4] = system: mice with intrauterine LPS; experiment: Facial Grimace Scale 24 hours after final LPS stimulation; type: in vivo, mouse (Balb/C); conditions: LPS in conjunction with amitriptyline or TAK242, 24 hours after final LPS stimulation
Protocol: as §1
24 hours following the final LPS stimulation mice were subjected to assessment for the presence or absence of pain. This was assessed using the following tests:
Facial Grimace Scale: Photos of mice in their home cage will be taken, to score their facial Grimace and this was quantified and compared between groups. For further information see: http://www.nature.com/nmeth/journal/v7/n6/full/nmeth.1455.html.

CN(C)CCC=C1c2ccccc2CCc2ccccc21 [Amitriptyline]
side effects [1]: drowsiness, dry mouth, blurred vision, pupil dilation, constipation, weight and urinary retention
effect on RIG-I−/MDA-5− control cell line (HEK293/Null): inhibitory effect
spinal glial activation induced by intrauterine LPS [2]: additional activity reducing spinal glial activation above TAK-242 alone
spinal glial activation induced by intrauterine LPS ([2]; listed as amitriptyline): prevented
dose effective at reducing spinal glial activation ([2]; mouse model, intrauterine administration): 27 µg/kg
microglial reactivity (Iba1 staining), impact of intrauterine LPS at multiple levels of the spinal cord [3]: reduced microglial reactivity to basal levels
Grimace scores [4]: reduced these scores
